Assay results from patent US20180000952A1, “ENZYME AND RECEPTOR MODULATION” (GlaxoSmithKline Intellectual Property Development Limited, priority 2005, published 2018).
Read-outs that look alike come from different tables or passages of the source. Values belong to the compound of their own block, whether it stands above or below them.

Assays:
HCT 116 cells = assay: Cell proliferation inhibition assay (WST-1), HCT116; type: cell-based; conditions: for Ratio IC50 Cell/enzyme (HCT116), Table 2: HCT116 cell IC50 / DHFR enzyme IC50
Procedure: (§1) Following 24 h of growth cells were treated with compound. Plates were then re-incubated for a further 72-96 h before a WST-1 cell viability assay was conducted according to the suppliers (Roche Applied Science) instructions
(§2) Data were expressed as a percentage inhibition of the control, measured in the absence of inhibitor, as follows;—
(§3) where S^l is the signal in the presence of inhibitor and S^o is the signal in the presence of DMSO.
(§4) Dose response curves were generated from 8 concentrations (top final concentration 10 μM, with 3-fold dilutions), using 6 replicates.

recombinant human DHFR = biological target: T1, recombinant human DHFR (Homo sapiens, UniProt P00374); assay: Dihydrofolate reductase (DHFR) inhibitory activity assay; type: biochemical
T1 construct: purchased Sigma CS0340
T1 sequence (P00374 1-187): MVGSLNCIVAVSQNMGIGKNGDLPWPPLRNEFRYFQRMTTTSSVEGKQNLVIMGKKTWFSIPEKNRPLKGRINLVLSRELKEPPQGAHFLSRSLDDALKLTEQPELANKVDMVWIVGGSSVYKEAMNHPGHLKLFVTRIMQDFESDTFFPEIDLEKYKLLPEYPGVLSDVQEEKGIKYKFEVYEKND
Procedure: The ability of compounds to inhibit DHFR activity was measured in an assay based on the ability of DHFR to catalyse the reversible NADPH-dependent reduction of dihydrofolic acid to tetrahydrofolic acid using a Sigma kit (Catalogue number CS0340). This uses proprietary assay buffer and recombinant human DHFR at 7.5×10^−4 Unit per reaction, NADPH at 60 μM and dihydrofolic acid at 50 μM. The reaction was followed by monitoring the decrease in absorbance at 340 nm, for a 2 minute period, at room temperature, and the enzyme activity was calculated as the rate of decrease in absorbance. Enzyme activity, in the presence of inhibitor, was expressed as a percentage of inhibitor-free activity and the inhibitor IC50 was determined from a sigmoidal dose response curve using XIfit software (% activity against log concentration of compound). Each sample was run in triplicate and each dose response curve was composed of 10 dilutions of the inhibitor.

[1] = tested on: U937 cell extract (esterase activity); assay: Broken cell carboxylesterase assay, U937 cell extract; type: in vitro ADME; conditions: U937 versus HCT116 broken cell assay
Procedure: U937 or HCT 116 tumour cells (˜10^9) were washed in 4 volumes of Dulbeccos PBS (˜1 litre) and pelleted at 525 g for 10 min at 4° C. This was repeated twice and the final cell pellet was resuspended in 35 ml of cold homogenising buffer (Trizma 10 mM, NaCl 130 mM, CaCl2 0.5 mM pH 7.0 at 25° C.). Homogenates were prepared by nitrogen cavitation (700 psi for […] at 4° C.). The homogenate was kept on ice and supplemented with a cocktail of Inhibitors at final concentrations of: • Leupeptin 1 μM • Aprotinin 0.1 μM • E64 8 μM • Pepstatin 1.5 μM • Bestatin 162 μM • Chymostatin 33 μM
After clarification of the cell homogenate by centrifugation at 525 g for 10 min, the resulting supernatant was used as a source of esterase activity and was stored at −80° C. until required.
Hydrolysis of esters to the corresponding carboxylic acids can be measured using the cell extract, prepared as above. To this effect cell extract (˜30 μg/total assay volume of 0.5 ml) was incubated at 37° C. in a Tris-HCl 25 mM, 125 mM NaCl buffer, pH 7.5 at 25° C. At zero time the ester (substrate) was then added at a final concentration of 2.5 μM and the samples were incubated at 37° C. for the appropriate time (usually 0 or 80 min). […] After centrifugation at 12000 g for 5 min, samples were analysed for the ester and its corresponding carboxylic acid at room temperature by LCMS (Sciex API 3000, HP1100 binary pump, CTC PAL). […]

U937 cells = assay: Cell proliferation inhibition assay (WST-1), U937; type: cell-based; conditions: for selectivity between a monocytic and non-monocytic cell line (cell proliferation): U937 versus HCT116; for Ratio IC50 cell/enzyme (Aurora kinase): U937 cell IC50 / Aurora kinase A IC50
Procedure: as §1, §2, §3, §4

[2] = tested on: TNFα production in human whole blood; assay: LPS-stimulation of human whole blood, TNF-α ELISA; type: cell-based; conditions: for Ratio IC50 WB/enzyme (P38 MAP kinase): whole blood IC50 / P38 MAP kinase IC50; for Ratio IC50 WB/enzyme (PI 3-Kinase): whole blood IC50 / PI3-Kinase IC50
Procedure: Whole blood was taken by venous puncture using heparinised vacutainers (Becton Dickinson) and diluted in an equal volume of RPMI1640 tissue culture media. 100 μl was plated in V-bottomed 96 well tissue culture plates. Inhibitor was added in 100 μl of RPMI1640 media, and 2 h later the blood was stimulated with LPS (E coli strain 005:B5, Sigma) at a final concentration of 100 ng/ml and incubated at 37° C. in 5% CO2 for 6 h. TNF-α levels were measured from cell-free supernatants by sandwich ELISA (R&D Systems #QTA00B).

[3] = compound as shown (ester or unmodified modulator, or named acid), read-out: IC50 nM enzyme (DHFR)
[4] = enzyme IC50 for the acid resulting from cleavage of the ester shown, read-out: IC50 nM enzyme (acid), figures in brackets

- IC50 (recombinant human DHFR; [3]): 2700 nM
- IC50 (recombinant human DHFR; [4]): 11 nM
Compound: Cc1c(CNc2ccc(OCCC(N)C(=O)OC3CCCC3)cc2)cnc2nc(N)nc(N)c12 (stereo not drawn)
- Ratio IC50 Cell/enzyme (HCT116), Table 2 (HCT 116 cells): 14

- IC50 (recombinant human DHFR; [3]): 1030 nM
- IC50 (recombinant human DHFR; [4]): 25 nM
Compound: Cc1c(CNc2ccc(OCCC(NC3CCCCC3)C(=O)OC3CCCC3)cc2)cnc2nc(N)nc(N)c12 (stereo not drawn)
- Ratio IC50 Cell/enzyme (HCT116), Table 2 (HCT 116 cells): 66

- IC50 (recombinant human DHFR; [3]): 4000 nM
- IC50 (recombinant human DHFR; [4]): 10 nM
Compound: Cc1c(CNc2ccc(CNC(CC(C)C)C(=O)OC3CCCC3)cc2)cnc2nc(N)nc(N)c12 (stereo not drawn)
- Ratio IC50 Cell/enzyme (HCT116), Table 2 (HCT 116 cells): 17

- IC50 (recombinant human DHFR; [3]): 1700 nM
- IC50 (recombinant human DHFR; [4]): 8 nM
Compound: Cc1c(CNc2ccc(C(=O)NC(CC(C)C)C(=O)OC3CCCC3)cc2)cnc2nc(N)nc(N)c12 (stereo not drawn)

- IC50 (recombinant human DHFR; [3]): 10 nM
Compound: COc1cc(NCc2cnc3nc(N)nc(N)c3c2C)cc(OC)c1OC [Compound (2 G=N), 5-Methyl-6-((3,4,5-trimethoxyphenylamino)methyl)pyrido[2,3-d]pyrimidine-2,4-diamine, reference compound]

Compound: Cc1c(CNc2ccc(OCC[C@H](NC3CCCCC3)C(=O)OC3CCCC3)cc2)cnc2nc(N)nc(N)c12 [Compound (4), (S)-2-Cyclohexylamino-4-{4-[(2,4-diamino-5-methyl-pyrido[2,3-d]pyrimidin-6-ylmethyl)-amino]-phenoxy}-butyric acid cyclopentyl ester]
- cleavage of the ester in monocytic versus non-monocytic cell lines [1]: selective cleavage in monocytic but not non-monocytic cell lines
- selectivity between a monocytic and non-monocytic cell line (cell proliferation) (U937 cells): significantly more anti-proliferative in monocytic cell lines

Compound: Cc1c(CNc2ccc(CN[C@@H](CC(C)C)C(=O)OC3CCCC3)cc2)cnc2nc(N)nc(N)c12 [Compound (5), (S)-2-{4-[(2,4-Diamino-5-methyl-pyrido[2,3-d]pyrimidin-6-ylmethyl)-amino]-benzylamino}-4-methyl-pentanoic acid cyclopentyl ester]
- cleavage of the ester in monocytic versus non-monocytic cell lines [1]: selective cleavage in monocytic but not non-monocytic cell lines
- selectivity between a monocytic and non-monocytic cell line (cell proliferation) (U937 cells): significantly more anti-proliferative in monocytic cell lines

- IC50 (recombinant human DHFR; [3]): 1700 nM
Compound: Cc1c(CNc2ccc(C(=O)N[C@@H](CC(C)C)C(=O)OC3CCCC3)cc2)cnc2nc(N)nc(N)c12 [Compound (6), (S)-2-{4-[(2,4-Diamino-5-methyl-pyrido[2,3-d]pyrimidin-6-ylmethyl)-amino]-benzoylamino}-4-methyl-pentanoic acid cyclopentyl ester]
- fold more potent in the HCT116 than the unmodified analogue (2 G=N) (HCT 116 cells; HCT116, versus (2 G=N)): 15 fold
- fold more potent in U937 cells than the unmodified analogue (2 G=N) (U937 cells; U937 cells, versus (2 G=N)): 100 fold

Compound: COc1cc2nccc(Oc3ccc(NC(=O)c4ccccc4)cc3)c2cc1OC [Compound (11), N-{4-(7-methoxy-6-methoxy-quinoline-4-yloxy)-phenyl}-benzamide, reference compound]
- Ratio IC50 cell/enzyme (Aurora kinase) (U937 cells): 1.3

Compound: COc1cc2c(Oc3ccc(NC(=O)c4ccccc4)cc3)ccnc2cc1OCC[C@H](N)C(=O)OC1CCCC1 [Compound (12), (S)-2-amino-4-[4-(4-benzoylamino-phenoxy)-6-methoxy-quinolin-7-yloxy]-butyric acid cyclopentyl ester]
- Ratio IC50 cell/enzyme (Aurora kinase) (U937 cells): 0.0015

Compound: COc1cc2c(Oc3ccc(NC(=O)c4ccccc4)cc3)ccnc2cc1OCC[C@H](N)C(=O)OC(C)(C)C [Compound (14), (S)-2-Amino-4-[4-(4-benzoylamino-phenoxy)-6-methoxy-quinolin-7-yloxy]-butyric acid tert-butyl ester]
- Ratio IC50 cell/enzyme (Aurora kinase) (U937 cells): 0.025

Compound: Nc1c(C(=O)c2ccc(F)cc2F)ccc(=O)n1-c1c(F)cccc1F [Compound (15), 6-Amino-5-(2,4-difluoro-benzoyl)-1-(2,6-difluoro-phenyl)-1H-pyridin-2-one, reference compound]
- Ratio IC50 WB/enzyme (P38 MAP kinase) [2]: 6

Compound: CC(C)(C)OC(=O)[C@@H](N)CCOc1cc(F)c(-n2c(N)c(C(=O)c3ccc(F)cc3F)ccc2=O)c(F)c1 [Compound (18), (S)-2-Amino-4-{4-[6-amino-5-(2,4-difluoro-benzoyl)-2-oxo-2H-pyridin-1-yl]-3,5-difluoro-phenoxy}-butyric acid tert-butyl ester]
- Ratio IC50 WB/enzyme (P38 MAP kinase) [2]: 18

- IC50 (recombinant human DHFR; [3]): 10 nM
Compound: Cc1c(CNc2ccc(C(=O)N[C@@H](CC(C)C)C(=O)O)cc2)cnc2nc(N)nc(N)c12 [Compound (19), (S)-2-(4-((2,4-diamino-5-methylpyrido[2,3-d]pyrimidin-6-yl)methylamino)benzamido)-4-methylpentanoic acid]

Compound: CC(=O)Nc1nc(C)c(-c2ccc(Cl)c(S(C)(=O)=O)c2)s1 [Compound (20), N-[5-(4-Chloro-3-methanesulfonyl-phenyl)-4-methyl-thiazol-2-yl]-acetamide, reference compound]
- Ratio IC50 WB/enzyme (PI 3-Kinase) [2]: 17

Compound: Cc1nc(NC(=O)CC[C@H](N)C(=O)OC2CCCC2)sc1-c1ccc(Cl)c(S(C)(=O)=O)c1 [Compound (21), (S)-2-Amino-4-[5-(4-chloro-3-methanesulfonyl-phenyl)-4-methyl-thiazol-2-ylcarbamoyl]-butyric acid cyclopentyl ester]
- Ratio IC50 WB/enzyme (PI 3-Kinase) [2]: 0.15

Compound: Cc1nc(NC(=O)CC[C@H](N)C(=O)OC(C)(C)C)sc1-c1ccc(Cl)c(S(C)(=O)=O)c1 [Compound (23), (S)-2-Amino-4-[5-(4-chloro-3-methanesulfonyl-phenyl)-4-methyl-thiazol-2-ylcarbamoyl]-butyric acid tert-butyl ester]
- Ratio IC50 WB/enzyme (PI 3-Kinase) [2]: 0.75

Compound: COc1cc(NCc2cnc3nc(N)nc(N)c3c2C)cc(OC)c1OC [drawing 10]
- Ratio IC50 Cell/enzyme (HCT116), Table 2 (HCT 116 cells): 170
- Ratio IC50 cell/enzyme (U937), Table 2 (U937 cells; U937 cell IC50 / DHFR enzyme IC50): 220
